Reference: patent US20040048807A1, “Angiogenesis inhibitors” (priority 2000, published 2004)

Tests used:
KB/TP cells = experiment: TP-dependent liver metastasis after injection of tumor cells into the spleen; format: in vivo, mouse; settings: for number of metastatic nodules in liver: KB/TP cell into spleen, 4 weeks, Balb/nude mouse
Experimental: A Balb/nude mouse of 7-8 weeks age is anesthetized by Nembutal (pentobarbital) and abdomen is slightly incised so as to observe the spleen. 1×10^5 numbers of KB/CV cells or KB/TP cells used in Example 2 is injected into the spleen. After one minute, the spleen is excised and the incised position is sutured. 2-deoxy-L-ribose (100 mg/kg/day) is injected to subcutaneous by two times (morning and evening) every day or one time every other day. To the control group, same amount of physiological saline is injected. After 4 weeks from therapy starting, abdomen is incised, the liver is excised and the number of metastatic nodules are counted. […] The number of metastatic lesions of KB/TP cell is obviously larger than those of KB/CV cell.

[1] = tested on: BAE cell (endothelial cells of bovine aorta); experiment: Chemotaxis of BAE cells (collagen-coated chamber, MTT method); format: cell-based; settings: 2DDR 10 μM + 2DLR 100 μM versus 2DDR 10 μM alone; DMEM + 1% FCS; incubation 4.5 hours
Experimental: The experimental results of the effect of 2-deoxy-L-ribose on the chemotaxis of BAE cell (endothelial cells of bovine aorta) are shown in FIG. 1. The numbers of inoculated cell 400000, incubation 4.5 hours Chamber coated by type 1 collagen: MTT method From left side, 1: DMEM+1% FCS (fetal calf serum) 2: 1+bFGF (angiogenesis factor) 10 ng/mL, 3: 1+2DDR (2-deoxy-D-ribose) 1 μM 4: 1+2DDR 10 μM 5: 1+2DDR 100 μM 6: 1+2DDR 10 μM+2DLR100 μM The effect of 2DLR ([…]) is obvious from the comparison between the date 4 and 6.

[2] = tested on: KB cells overpressing TP (KB/TP); experiment: Millipore chamber angiogenesis assay, chamber with KB cells implanted dorsal subcutaneously in mouse; format: in vivo; settings: for number of angiogenesis (longer than 3 mm, zig-zag pattern): 100 mg/kg/day into abdominal cavity every 12 hours for 4 days, male BALB/c mouse
Experimental: KB cells overpressing TP (KB/TP) prepared by transfection of […] into KB cells and TP-negative KB cells (KB/CV) prepared by transfection of an empty vector are rinsed by phosphate buffered saline PBS for two times, each 1×10^5 numbers are contained into a Millipore chamber (10 mm diameter, 2 mm thickness, pore size of filter is 0.22 μm) and inserted into dorsal subcutaneous of a male BALB/c mouse of 6-7 weeks age. 2-deoxy-L-ribose (100 mg/kg/day) is administered into abdominal cavity every 12 hours for 4 days. After 4 days from the implanting, the Millipore chamber is removed, and numbers of angiogenesis (longer than 3 mm and showing zig-zag pattern) were counted using a microscope. Results by microscope observation are shown in FIG. 2 (picture A, B, C and D). The number of angiogenesis by KB/TP cell (B) is 4.33 and that of KB/CV cell (B) is 2.67. When 2-deoxy-L-ribose is administereded, that of KB/TP cell (D) becomes to 2.83 and that of […] becomes to 2.83.

O=CC[C@@H](O)[C@@H](O)CO [2-deoxy-L-ribose]
suppression of TP-dependent metastasis of tumor from spleen to liver (KB/TP cells; 100 mg/kg/day subcutaneous, overall conclusion): perfectly suppressing the TP-dependent metastasis of tumor from spleen to liver
number of metastatic nodules in liver (KB/TP cells; 100 mg/kg/day subcutaneous one time every other day): smaller than the number of metastatic nodules of KB/CV cell
number of metastatic nodules in liver (KB/TP cells; 100 mg/kg/day subcutaneous two times (morning and evening) every day (LR)): smaller than the number of metastatic nodules of KB/CV cell
effect on the chemotaxis of BAE cell [1]: obvious
suppression of the angiogenesis by TP ([2]; 100 mg/kg/day into abdominal cavity for 4 days, overall conclusion): perfectly supressing the angiogenesis by TP
number of angiogenesis (longer than 3 mm, zig-zag pattern) ([2]; KB/TP cell (D)): 2.83
number of angiogenesis (longer than 3 mm, zig-zag pattern) ([2]; KB/TP cell (E) as printed): 2.83
